In patent US10800789B2, “Antiviral compounds” (Gilead Pharmasset LLC, priority 2012, dated 2020):
Like-named read-outs stand apart in the source and are kept apart here.

Legend:
[1] = system: stable HCV 1b RLuc replicon cells (dicistronic genotype 1b Con1 replicon); experiment: Renilla luciferase HCV replicon reporter assay, genotype 1b; assay type: cell-based; conditions: Hepatitis C virus, 72 h, stable 1b Con1 RLuc replicon cells, 72 hours; read-out: 1b
Summary of the method: (§1)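 72 h compound exposure (3-fold dilutions from 10 mM DMSO stocks) of replicon cells: stable dicistronic RLuc 1a H77, 1b Con1, 2a JFH-1 (NS5A L31); J6-NS5A chimera in JFH-1 (M31), transient in Huh-Lunet or stable. Renilla luciferase read-out, non-linear regression → EC50. DMSO negative control.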

[2] = system: stable HCV 1a RLuc replicon cells (dicistronic genotype 1a H77 replicon); experiment: Renilla luciferase HCV replicon reporter assay, genotype 1a; assay type: cell-based; conditions: Hepatitis C virus, 72 h, stable 1a H77 RLuc replicon cells
Summary of the method: as §1

[3] = system: stable HCV 2a JFH-1 Rluc replicon cells (L31 present in NS5A); experiment: Renilla luciferase HCV replicon reporter assay, genotype 2a JFH-1; assay type: cell-based; conditions: Hepatitis C virus
Summary of the method: as §1

[4] = system: NS5A chimeric genotype 2a JFH-1 replicon with genotype 2a J6 strain NS5A gene (M31 present); experiment: Replicon assay, genotype 2a J6 NS5A chimera; assay type: cell-based, HCV; conditions: Hepatitis C virus
Summary of the method: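 Cells carrying the stable or transiently transfected (Huh-Lunet) dicistronic RLuc replicons received 3-fold serial compound dilutions from 10 mM DMSO stocks. After 72 h, cells were lysed and Renilla luciferase read. DMSO served as the no-inhibition control and ITMN-191 above 100×EC50 as the positive control; EC50 by non-linear regression.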

[5] = system: NS5A chimeric genotype 2a JFH-1 replicon with genotype 2b MD2b-1 strain NS5A gene (M31 present); experiment: Replicon assay, genotype 2b NS5A chimera; assay type: cell-based, HCV; conditions: Hepatitis C virus
Summary of the method: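 EC50 was fitted by non-linear regression to Renilla luciferase signal after 72 h of exposure to 3-fold serially diluted compound (10 mM DMSO stocks). Controls were DMSO (none) and ITMN-191 above 100×EC50 (full). Chimeric 2a replicons were used either stable or transiently transfected into Huh-Lunet cells.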

[6] = system: NS5A chimeric genotype 1b Con1 replicon with genotype 3a S52 strain NS5A gene; experiment: Replicon assay, genotype 3a NS5A chimera; assay type: cell-based, HCV; conditions: Hepatitis C virus
[7] = system: NS5A chimeric genotype 1b Con1 replicon with genotype 4a ED43 strain NS5A gene; experiment: Replicon assay, genotype 4a NS5A chimera; assay type: cell-based, HCV; conditions: Hepatitis C virus
[8] = read-out: 2a JFH (nM), genotype 2a JFH-1 replicon (L31 in NS5A), stable cells
[9] = read-out: 2a JFH, stable 2a JFH-1 Rluc replicon cells, L31 in NS5A, activity range
[10] = read-out: 2a J6 (t) (nM), genotype 2a J6 NS5A chimeric replicon (M31), transiently transfected (t) into Huh-Lunet cells
[11] = read-out: 2a J6 (t), transiently transfected (t) into Huh-Lunet cells, activity range
[12] = 2BS, read-out: 2b (s), stably replicating replicon cells (s), activity range
[13] = read-out: 2b (s) (nM), genotype 2b MD2b-1 NS5A chimeric replicon (M31), stably replicating replicon cells (s)
[14] = read-out: 3a (s) (nM), genotype 3a NS5A chimeric replicon, stable replicon cells (s)
[15] = read-out: 3a (s), (s), activity range
[16] = read-out: 4a (s) (nM), genotype 4a NS5A chimeric replicon, stable replicon cells (s)
[17] = read-out: 4a (s), (s), activity range

| Compound | EC50 [1] | EC50 [2] | EC50 ([2]; activity range) | EC50 [3, 8] | EC50 [3, 9] | EC50 [4, 10] | EC50 [4, 11] | EC50 [5, 12] | EC50 [5, 13] | EC50 [6, 14] | EC50 [6, 15] | EC50 [7, 16] | EC50 [7, 17] |
| --- | --- | --- | --- | --- | --- | --- | --- | --- | --- | --- | --- | --- | --- |
| CC[C@H](C)[C@H](NC(=O)OC)C(=O)N1C[C@@H](C)C[C@H]1c1nc2ccc3cc4c(cc3c2[nH]1)OCc1cc(-c2cnc([C@@H]3CC[C@H](C)N3C(=O)[C@@H](NC(=O)OC)C(C)C)[nH]2)ccc1-4 [GR] | 0.022 nM | 0.016 nM | < 0.1 nM | 0.025 nM | < 0.1 nM | 0.198 nM | 0.1 to 0.999 nM | 0.1 to 0.999 nM | 0.794 nM | 0.159 nM | 0.1 to 0.999 nM | 0.025 nM | < 0.1 nM |
| CC[C@H]1CC[C@@H](c2nc3ccc4cc5c(cc4c3[nH]2)OCc2cc(-c3cnc([C@@H]4CC[C@H](C)N4C(=O)[C@@H](NC(=O)OC)C(C)C)[nH]3)ccc2-5)N1C(=O)[C@@H](NC(=O)OC)[C@@H](C)O [GS] | 0.021 nM | 0.018 nM | < 0.1 nM | 0.017 nM | < 0.1 nM | 0.116 nM | 0.1 to 0.999 nM | 0.1 to 0.999 nM | 0.372 nM | 0.271 nM | 0.1 to 0.999 nM | 0.017 nM | < 0.1 nM |
| CC[C@H]1C[C@@H](c2nc3ccc4cc5c(cc4c3[nH]2)OCc2cc(-c3cnc([C@@H]4CC[C@H](C)N4C(=O)[C@@H](NC(=O)OC)C(C)C)[nH]3)ccc2-5)N(C(=O)[C@@H](NC(=O)OC)C(C)C)C1 [GT] | 0.021 nM | 0.017 nM | < 0.1 nM | 0.028 nM | < 0.1 nM | 0.257 nM | 0.1 to 0.999 nM | 1 to 44 nM | 1.73 nM | 0.187 nM | 0.1 to 0.999 nM | 0.031 nM | < 0.1 nM |
| CC[C@H]1C[C@@H](c2nc3ccc4cc5c(cc4c3[nH]2)OCc2cc(-c3cnc([C@@H]4CC[C@H](C)N4C(=O)[C@@H](NC(=O)OC)C(C)C)[nH]3)ccc2-5)N(C(=O)[C@@H](NC(=O)OC)[C@@H](C)OC)C1 [GU] | 0.022 nM | 0.014 nM | < 0.1 nM | 0.014 nM | < 0.1 nM | 0.075 nM | < 0.1 nM | 0.1 to 0.999 nM | 0.728 nM | 0.152 nM | 0.1 to 0.999 nM | 0.026 nM | < 0.1 nM |
| CC[C@H]1C[C@@H](c2ncc(-c3ccc4c(c3)COc3cc5c(ccc6nc([C@@H]7CC[C@H](C)N7C(=O)[C@@H](NC(=O)OC)C(C)C)[nH]c65)cc3-4)[nH]2)N(C(=O)[C@@H](NC(=O)OC)C(C)C)C1 [GW] | 0.015 nM | 0.017 nM | < 0.1 nM | 0.018 nM | < 0.1 nM | 0.771 nM | 0.1 to 0.999 nM | 1 to 44 nM | 2.41 nM | 0.127 nM | 0.1 to 0.999 nM | 0.01 nM | < 0.1 nM |
| CC[C@H]1C[C@@H](c2ncc(-c3ccc4c(c3)COc3cc5c(ccc6nc([C@@H]7CC[C@H](C)N7C(=O)[C@@H](NC(=O)OC)C(C)C)[nH]c65)cc3-4)[nH]2)N(C(=O)[C@@H](NC(=O)OC)[C@@H](C)OC)C1 [GX] | 0.016 nM | 0.016 nM | < 0.1 nM | 0.013 nM | < 0.1 nM | 0.135 nM | 0.1 to 0.999 nM | 1 to 44 nM | 1.18 nM | 0.106 nM | 0.1 to 0.999 nM | 0.01 nM | < 0.1 nM |
| COC(=O)N[C@H](C(=O)N1[C@@H](C)CC[C@H]1c1nc2ccc3cc4c(cc3c2[nH]1)OCc1cc(-c2cnc([C@@H]3CC[C@H](C)N3C(=O)[C@@H](NC(=O)OC)[C@@H](C)O)[nH]2)ccc1-4)C(C)C [GY] | 0.032 nM | 0.023 nM | < 0.1 nM | 0.013 nM | < 0.1 nM | 0.06 nM | < 0.1 nM | 0.1 to 0.999 nM | 0.311 nM | 0.048 nM | < 0.1 nM | 0.015 nM | < 0.1 nM |
| COC(=O)N[C@@H](CO)C(=O)N1[C@@H](C)CC[C@H]1c1nc2ccc3cc4c(cc3c2[nH]1)OCc1cc(-c2cnc([C@@H]3CC[C@H](C)N3C(=O)[C@@H](NC(=O)OC)C(C)C)[nH]2)ccc1-4 [GZ] | 0.045 nM | 0.042 nM | < 0.1 nM | 0.019 nM | < 0.1 nM | 0.534 nM | 0.1 to 0.999 nM | 1 to 44 nM | 1.15 nM | 0.158 nM | 0.1 to 0.999 nM | 0.031 nM | < 0.1 nM |
| CCC[C@H](NC(=O)OC)C(=O)N1[C@@H](C)CC[C@H]1c1ncc(-c2ccc3c(c2)COc2cc4c(ccc5nc([C@@H]6CC[C@H](C)N6C(=O)[C@H](CCC)NC(=O)OC)[nH]c54)cc2-3)[nH]1 [HA] | 0.019 nM | 0.018 nM | < 0.1 nM | 0.033 nM | < 0.1 nM | 4.12 nM | 1 to 44 nM | 1 to 44 nM | 5.42 nM | 0.132 nM | 0.1 to 0.999 nM | 0.028 nM | < 0.1 nM |
| [2H]C([2H])([2H])C([2H])(C([2H])([2H])[2H])[C@]([2H])(NC(=O)OC)C(=O)N1[C@@H](C)CC[C@H]1c1ncc(-c2ccc3c(c2)COc2cc4c(ccc5nc([C@@H]6CC[C@H](C)N6C(=O)[C@@]([2H])(NC(=O)OC)C([2H])(C([2H])([2H])[2H])C([2H])([2H])[2H])[nH]c54)cc2-3)[nH]1 [HB] | 0.012 nM | 0.012 nM | < 0.1 nM | 0.011 nM | < 0.1 nM | 0.155 nM | 0.1 to 0.999 nM | 0.1 to 0.999 nM | 0.49 nM | 0.038 nM | < 0.1 nM | 0.011 nM | < 0.1 nM |
| COC(=O)N[C@@H](C)C(=O)N1[C@@H](C)CC[C@H]1c1nc2ccc3cc4c(cc3c2[nH]1)OCc1cc(-c2cnc([C@@H]3CC[C@H](C)N3C(=O)[C@@H](NC(=O)OC)C(C)C)[nH]2)ccc1-4 [HC] | 0.016 nM | 0.012 nM | < 0.1 nM | 0.014 nM | < 0.1 nM | 1.43 nM | 1 to 44 nM | 1 to 44 nM | 1.82 nM | 0.105 nM | 0.1 to 0.999 nM | 0.014 nM | < 0.1 nM |
| COC(=O)N[C@H](C(=O)N1[C@@H](C)CC[C@H]1c1ncc(-c2ccc3c(c2)COc2cc4c(ccc5nc([C@@H]6CC[C@H](C)N6C(=O)[C@@H](NC(=O)OC)C6CC6)[nH]c54)cc2-3)[nH]1)C(C)C [HD] | 0.017 nM | 0.015 nM | < 0.1 nM | 0.017 nM | < 0.1 nM | 1.39 nM | 1 to 44 nM | 1 to 44 nM | 1.9 nM | 0.102 nM | 0.1 to 0.999 nM | 0.016 nM | < 0.1 nM |
| COC(=O)N[C@H](C(=O)N1[C@@H](C)CC[C@H]1c1ncc(-c2ccc3c(c2)COc2cc4c(ccc5nc([C@@H]6CC[C@H](C)N6C(=O)[C@@H](NC(=O)OC)C6CCCCC6)[nH]c54)cc2-3)[nH]1)C(C)C [HE] | 0.02 nM | 0.011 nM | < 0.1 nM | 0.017 nM | < 0.1 nM | 0.677 nM | 0.1 to 0.999 nM | 1 to 44 nM | 1.59 nM | 0.074 nM | < 0.1 nM | 0.014 nM | < 0.1 nM |
| COC(=O)N[C@@H](C)C(=O)N1[C@@H](C)CC[C@H]1c1ncc(-c2ccc3c(c2)COc2cc4c(ccc5nc([C@@H]6CC[C@H](C)N6C(=O)[C@H](C)NC(=O)OC)[nH]c54)cc2-3)[nH]1 [HF] | 0.066 nM | 0.043 nM | < 0.1 nM | 0.06 nM | < 0.1 nM | 19.5 nM | 1 to 44 nM | 1 to 44 nM | 16.3 nM | 0.556 nM | 0.1 to 0.999 nM | 0.111 nM | 0.1 to 0.999 nM |
| COC(=O)N[C@H](C(=O)N1CCC[C@H]1c1ncc(-c2ccc3c(c2)COc2cc4c(ccc5nc([C@@H]6CCCN6C(=O)[C@@H](NC(=O)OC)[C@@H](C)OC)[nH]c54)cc2-3)[nH]1)[C@@H](C)OC [HG] | 0.109 nM | 0.06 nM | < 0.1 nM | 0.021 nM | < 0.1 nM | 0.185 nM | 0.1 to 0.999 nM | 0.1 to 0.999 nM | 0.733 nM | 0.129 nM | 0.1 to 0.999 nM | 0.033 nM | < 0.1 nM |
